In patent US20040127518A1, “Modulation of anxiety through blockade of anandamide hydrolysis” (priority 2002, published 2004):
“Also recorded” adds a separate entry of the source. Read-outs that look alike come from different tables or passages of the source.

Experiments:
[1] = target: electric eel acetylcholinesterase (Electrophorus electricus, UniProt O42275); conditions: for IC50: read-out: Cholinesterase IC50, Table 3, acetylcholinesterase
Description: (§4) We prepared cell fractions from rat brain homogenates, and assayed membrane FAAH activity and cytosol MGL activity using anandamide [ethanolamine-3H] (American Radiolabeled Chemicals, ARC (St. Louis Mo.), 60 Ci/mmol) and 2-mono-oleoyl-glycerol-[glycerol-1,2,3^−3H] (ARC, St. Louis Mo., 20 Ci/mmol), respectively, as substrates (Dinh, T. Proc. Natl. Acad. Sci. U.S.A. (2002)). We conducted [^3H]anandamide transport assays in human astrocytoma cells (Piomelli, D. et al., Proc. Natl. Acad. Sci. U.S.A., 96, 5802-5807 (1999)); CB1 and CB2 binding assays in rat cerebellar membranes and CB2-overexpressing Chinese hamster ovary cells (Receptor Biology-Perkin Elmer, Wellesley, Mass.), respectively, using [^3H]WIN-55212-2 (NEN-Dupont, Boston, Mass., 40-60 Ci/mmol) as a ligand (Devane, W. A. et al. Science, 258, 1946-1949 (1992)); cholinesterase assays with a commercial kit (Sigma, St. Louis, Mo.), using purified enzymes (electric eel acetylcholinesterase type V-S and horse serum cholinesterase; both from Sigma, St. Louis, Mo.) and following manufacturer's instructions.

FAAH = target: T1, FAAH (Rattus norvegicus, UniProt P97612); assay: biochemical; type: biochemical; set-up: from tissue; host or cells: rat brain (membrane fraction of homogenate; Wistar rats)
T1 sequence (P97612 1-579): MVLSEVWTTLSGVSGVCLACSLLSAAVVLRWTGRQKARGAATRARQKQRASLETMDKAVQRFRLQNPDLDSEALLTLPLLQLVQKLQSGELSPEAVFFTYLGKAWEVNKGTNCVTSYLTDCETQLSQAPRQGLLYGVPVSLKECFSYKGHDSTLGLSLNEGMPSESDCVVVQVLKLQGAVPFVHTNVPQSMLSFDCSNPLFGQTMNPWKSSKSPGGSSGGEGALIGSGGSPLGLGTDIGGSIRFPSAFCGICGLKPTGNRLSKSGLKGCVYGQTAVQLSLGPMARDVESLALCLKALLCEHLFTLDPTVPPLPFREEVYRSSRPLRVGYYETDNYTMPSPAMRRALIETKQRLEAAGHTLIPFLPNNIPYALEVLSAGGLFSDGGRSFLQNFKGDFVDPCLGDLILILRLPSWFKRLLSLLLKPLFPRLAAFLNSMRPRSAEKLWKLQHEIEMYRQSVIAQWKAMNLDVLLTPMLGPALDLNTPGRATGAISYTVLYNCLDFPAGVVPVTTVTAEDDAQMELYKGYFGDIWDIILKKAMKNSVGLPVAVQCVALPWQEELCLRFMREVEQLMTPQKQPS

rat cortical neurons = assay: Transport, accumulation and release of non-metabolized [3H]anandamide in cortical neurons; type: cell-based; conditions: for accumulation of non-metabolized [3H]anandamide in neurons: 4-min incubation, UCM532 3 μM, UCM597 10 nM
[2] = tested on: brain content of anandamide, other fatty acid ethanolamides and 2-AG; assay: Brain levels of fatty acid ethanolamides and 2-AG by HPLC/MS; type: in vivo, rat; conditions: 0.3 mg kg-1 i.p., 2 h after injection
Text: We extracted lipids from tissues with a methanol-chloroform mixture and fractionated them by silica gel column chromatography (Giuffrida, A. et al., Anal. Biochem., 280, 87-93 (2000)). Anandamide and other fatty acid derivatives were quantified by HPLC/MS, using an isotope dilution method (Giuffrida, A. et al., Anal. Biochem., 280, 87-93 (2000)).

[3] = Body temperature (rectal probe); type: in vivo
Text: (§1) We dissolved all compounds in saline/Tween 80/polyethylenglycol (90/5/5) and administered them by i.p. injection immediately before tests. We measured body temperature with a rectal probe (Type T, Copper-Costantan Thermocouple-Physitemp Instruments INC, Clifton, N.J.) connected to a digital thermometer (model BAT-12 Physitemp Instruments INC, Clifton, N.J.); and catalepsy using the procedure described in Tseng and Craft (Tseng, A. H. et al., Eur. J. Pharmacol., 430, 41-47 (2001)).

Catalepsy = type: in vivo; conditions: UCM532 10 mg kg-1 i.p.; UCM597 0.3 mg kg-1 i.p.; data not shown
Text: as §1

[4] = Food intake in free-feeding rats; type: in vivo, rat; conditions: UCM532 10 mg kg-1 i.p.; UCM597 0.3 mg kg-1 i.p.; data not shown
Description: We recorded food intake in free-feeding rats by using an automated system (Scipro Inc., New York). Rats were acclimated to the test cages for three days prior to the tests. Each test began at the onset of the dark phase and lasted for 24 hours.

Mouse hot-plate test = type: in vivo; conditions: 0.5 mg kg-1 i.p., 60 min before test
Description: (§2) We dissolved FAAH inhibitors in polyethyleneglycol/water (1/1) and rimonabant in saline. Formalin and hot-plate assays were carried out in the mouse, as described (Beltramo, M. et al., FEBS Lett., 403, 263-267 (1997)).
(§3) The compounds exerted, however, moderate antinociceptive effects in two models of acute pain.

Mouse formalin test = type: in vivo; conditions: 0.5 mg kg-1 i.p.
Description: as §2, §3

Elevated zero maze test = type: in vivo, rat; conditions: adult rats; i.p. 30 min before test; UCM532 5 and 10 mg kg-1; UCM597 0.05-0.1 mg kg-1
Description: We dissolved FAAH inhibitors and rimonabant in dimethylsulfoxide (DMSO)/saline (7/3 and 9/1, respectively); we administered FAAH inhibitors by i.p. injection 30 min before tests and rimonabant 30 min before UCM532. The elevated zero maze was comprised of a black Perspex annular platform (105 cm diameter, 10 cm width) elevated to 65 cm above ground level, divided equally into four quadrants (Bickerdike, M. J. et al., Eur. J. Pharmacol., 271, 403-411 (1994); Shepherd, J. K. et al., Psychopharmacology, 116, 56-64 (1994)). […] We placed the rats in a closed quadrant and video recorded them for 5-min periods, thoroughly cleaning the maze between sessions. […] Results are expressed as percent time in open quadrant/total time (percent time open). Results were analyzed by one-way ANOVA followed by Tukey's test. We recorded motor activity of each rat in an Opto-Varimex cage (Columbus Instruments, Columbus, Ohio) linked on-line to a computer and placed in a sound-attenuated room illuminated by a 20-W white light. The amount of time spent in ambulatory activity was analyzed using an Auto-Track software (Columbus Instruments, Columbus, Ohio) as described elsewhere (Ali, M. M. et al., Neurosci. Lett., 284, 57-60 (2000); Wedzony, K. et al., Neuropsychopharmacology, 23, 547-559 (2000)). […] We analyzed data by overall one-way ANOVA followed by Tukey's test for individual between-group comparisons. […]

[5] = target: horse plasma butyryl cholinesterase (Equus caballus, UniProt P81908); assay: Cholinesterase assay with commercial kit, purified enzyme
Description: as §4

[6] = target: T2, rat brain monoglyceride lipase (MGL) (Rattus norvegicus, UniProt Q8R431); assay: Cytosol MGL activity, 2-mono-oleoyl-glycerol as substrate
T2 sequence (Q8R431 1-303): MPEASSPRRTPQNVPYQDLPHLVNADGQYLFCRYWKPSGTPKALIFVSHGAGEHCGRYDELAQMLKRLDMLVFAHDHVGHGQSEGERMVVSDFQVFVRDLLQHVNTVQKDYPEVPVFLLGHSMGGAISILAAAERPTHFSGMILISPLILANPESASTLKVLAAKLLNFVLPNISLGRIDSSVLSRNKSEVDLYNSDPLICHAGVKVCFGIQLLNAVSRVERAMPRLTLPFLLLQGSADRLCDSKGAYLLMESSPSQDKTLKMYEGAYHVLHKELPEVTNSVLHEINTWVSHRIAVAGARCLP
Description: as §4

anandamide transport = assay: [3H]anandamide transport assay in human astrocytoma cells; conditions: human astrocytoma cells
Description: as §4

CB2 receptor = CB2 receptor (Homo sapiens, UniProt P34972); assay: CB2 binding assay in CB2-overexpressing Chinese hamster ovary cells, [3H]WIN-55212-2
Description: as §4

[7] = Table 3, read-out: Amidohydrolase IC50
[8] = Table 4, FAAH IC50, read-out: Inhibition of Amidohydrolase IC50

Chain of electric eel acetylcholinesterase (O42275 whole entry): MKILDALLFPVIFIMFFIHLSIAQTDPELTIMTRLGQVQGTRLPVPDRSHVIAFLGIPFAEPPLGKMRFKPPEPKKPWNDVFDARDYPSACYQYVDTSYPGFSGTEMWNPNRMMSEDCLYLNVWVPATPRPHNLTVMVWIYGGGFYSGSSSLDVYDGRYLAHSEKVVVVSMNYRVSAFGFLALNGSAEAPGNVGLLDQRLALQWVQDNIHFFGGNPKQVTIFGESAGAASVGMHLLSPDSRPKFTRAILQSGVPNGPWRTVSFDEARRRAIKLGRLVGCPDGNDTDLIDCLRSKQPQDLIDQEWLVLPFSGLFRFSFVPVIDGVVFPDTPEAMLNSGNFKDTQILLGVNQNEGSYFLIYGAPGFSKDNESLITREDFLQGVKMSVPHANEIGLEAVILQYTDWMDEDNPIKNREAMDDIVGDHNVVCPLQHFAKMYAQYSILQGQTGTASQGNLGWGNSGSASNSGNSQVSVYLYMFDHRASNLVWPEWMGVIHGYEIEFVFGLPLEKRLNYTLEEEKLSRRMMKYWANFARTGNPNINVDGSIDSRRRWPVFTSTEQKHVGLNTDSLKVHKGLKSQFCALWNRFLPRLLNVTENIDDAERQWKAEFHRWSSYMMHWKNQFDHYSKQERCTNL
Chain of CB2 receptor (P34972 whole entry): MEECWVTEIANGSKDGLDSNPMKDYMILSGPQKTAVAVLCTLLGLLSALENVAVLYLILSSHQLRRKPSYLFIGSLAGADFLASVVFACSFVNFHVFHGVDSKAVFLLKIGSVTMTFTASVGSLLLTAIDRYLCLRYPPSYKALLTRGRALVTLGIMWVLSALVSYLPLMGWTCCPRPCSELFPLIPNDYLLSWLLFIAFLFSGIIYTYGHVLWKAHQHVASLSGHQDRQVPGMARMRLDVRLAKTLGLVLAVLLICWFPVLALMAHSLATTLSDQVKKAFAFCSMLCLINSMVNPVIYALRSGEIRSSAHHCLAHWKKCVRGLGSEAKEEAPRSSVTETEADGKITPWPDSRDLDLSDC
Chain of horse plasma butyryl cholinesterase (P81908 whole entry): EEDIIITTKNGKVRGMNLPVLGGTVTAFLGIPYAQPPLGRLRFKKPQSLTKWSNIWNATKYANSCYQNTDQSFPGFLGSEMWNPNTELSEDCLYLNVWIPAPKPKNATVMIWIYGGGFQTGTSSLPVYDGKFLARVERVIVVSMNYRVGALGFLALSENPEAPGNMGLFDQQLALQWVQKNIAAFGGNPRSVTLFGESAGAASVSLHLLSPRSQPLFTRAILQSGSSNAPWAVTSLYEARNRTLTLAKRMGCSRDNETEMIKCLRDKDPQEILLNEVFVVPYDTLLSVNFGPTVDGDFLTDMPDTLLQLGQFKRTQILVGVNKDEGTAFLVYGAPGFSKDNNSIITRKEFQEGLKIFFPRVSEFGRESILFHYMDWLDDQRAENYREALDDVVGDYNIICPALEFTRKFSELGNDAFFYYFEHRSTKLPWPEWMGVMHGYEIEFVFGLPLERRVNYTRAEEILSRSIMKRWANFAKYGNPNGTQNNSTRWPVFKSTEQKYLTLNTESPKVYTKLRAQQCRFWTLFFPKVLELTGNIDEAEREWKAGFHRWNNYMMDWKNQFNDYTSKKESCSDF

For 4-fluoraphenyl N-butylcarbamate [PL#12], the IC50 [1] was > 30 µM, the IC50 (FAAH; [7]) was 11500 nM and the IC50 (FAAH; [8]) was 11500 nM.

In the case of `NC(=O)c1cccc(-c2cccc(OC(=O)NC3CCCCC3)c2)c1` [UCM597, cyclohexylcarbamic acid 3′-carbamoylbiphenyl-3-yl ester], the “accumulation of non-metabolized [3H]anandamide in neurons” value (rat cortical neurons; AM404 10 μM) is reported as “promote accumulation”, the “accumulated [3H]anandamide released back into the medium” value (rat cortical neurons; UCM597-treated (10 nM) neurons, 15 min in [3H]anandamide-free solution, n=3) is reported as 42.6±8.7% and the “carrier-mediated uptake of [3H]anandamide” value (rat cortical neurons; rat cortical neurons) is reported as “without reducing”. For the same compound, the “brain content of 2-AG” value [2] was “did not change”, the “brain content of anandamide” value [2] was “significant elevations” and the “brain content of oleoylethanolamide” value ([2]; n=8-15) was 725.3 ± 28.6 pmol g^−1 of tissue. The “brain content of palmitoylethanolamide” value ([2]; n=8-15) was 1324±395 pmol g^−1 of tissue, the “body temperature / hypothermia, compound alone” value ([3]; UCM532 10 mg kg-1 i.p., UCM597 0.3 mg kg-1 i.p.) was “no effect and no” and the “decrease in body temperature elicited by anandamide” value ([3]; UCM597 0.3 mg kg-1 i.p. 30 min before anandamide 5 mg kg-1 i.p.) was “intensified and prolonged”. The “catalepsy (rigid immobility)” value (Catalepsy) was “no catalepsy”, the “hyperphagia (increased food intake)” value [4] was “no” and the “response latencies, hot-plate test” value (Mouse hot-plate test) was “significantly lengthened”. The “early phase of formalin-evoked pain behavior” value (Mouse formalin test) was “attenuated”, the “late phase of formalin-evoked pain behavior” value (Mouse formalin test) was “little or no change” and the “percent time open, elevated zero maze” value (Elevated zero maze test) was “anxiolytic-like responses”. For the same compound, the “effect on acetylcholinesterase activity (in words)” value [1] was “did not affect”, the “effect on butyryl cholinesterase activity (in words)” value [5] was “did not affect” and the “effect on MGL activity (in words)” value [6] was “did not affect”. The “effect on anandamide transport (in words)” value (anandamide transport) was “no effect” and the “effect on binding of a high-affinity ligand to CB2 (in words)” value (CB2 receptor) was “no effect”.

For `CCCCC/C=C\C/C=C\C/C=C\C/C=C\CCCC(=O)Nc1ccc(O)cc1` [AM404, N-(4-hydroxyphenyl)arachidonamide, reference compound], the “accumulation of non-metabolized [3H]anandamide in neurons” value (rat cortical neurons; AM404 10 μM) was “significantly reducing; also recorded: reduces” and the “effect on [3H]anandamide release from UCM597-treated neurons” value (rat cortical neurons; AM404 10 μM, 15-min incubation) was “not inhibited”.

For hexyl-N-cyclohexyl carbamate [PL#9], the IC50 [1] was > 30 µM, the IC50 (FAAH; [7]) was 3700 nM and the IC50 (FAAH; [8]) was 3700 nM.

For “2.3-dihyrdo-2.2-dimethyl-7-benzogumaol N-methylcarbamate [PL#15, reference compound]”, the IC50 [1] was 0.56 µM, the IC50 (FAAH; [7]) was > 30000 nM and the IC50 (FAAH; [8]) was > 30000 nM.

With `CNC(=O)Oc1cccc2ccccc12` [PL#18, carbaryl, reference compound] the IC50 [1] was 3.1 µM, the “inhibition of FAAH activity (in words)” value (FAAH) was “ineffective” and the IC50 (FAAH; IC50(nM)) was > 100000 nM.
